Values of other authors as cited in patent publication US12268699B2, “Transdermal delivery of tetrahydrocannabinol” (Pike Therapeutics Inc., priority 2019, dated 2025).
Where two headings read alike, the source gives them in different places.

How the values were obtained:
CB2 receptor over CB1 = settings: given as ×, -fold or times
[1] = tested on: complete Freund's adjuvant-induced monoarthritic knee join mode; settings: transdermal
CB1 = CB1 (Homo sapiens, UniProt P21554)
CB2 = CB2 (Homo sapiens, UniProt P34972)
Chain of CB2 (P34972 whole entry, species assumed): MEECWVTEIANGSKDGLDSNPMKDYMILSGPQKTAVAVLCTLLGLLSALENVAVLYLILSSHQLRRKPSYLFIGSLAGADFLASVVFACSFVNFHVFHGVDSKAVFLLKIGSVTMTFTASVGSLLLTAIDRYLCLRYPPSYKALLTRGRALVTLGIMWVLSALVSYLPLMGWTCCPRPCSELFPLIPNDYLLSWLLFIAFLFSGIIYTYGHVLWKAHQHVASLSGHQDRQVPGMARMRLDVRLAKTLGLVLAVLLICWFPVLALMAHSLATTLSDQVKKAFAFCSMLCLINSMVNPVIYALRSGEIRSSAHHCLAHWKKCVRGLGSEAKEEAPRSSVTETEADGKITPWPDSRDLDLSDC

[2] = in 96 hrs. with 6% Brij O20

Chain of CB1 (P21554 whole entry, species assumed): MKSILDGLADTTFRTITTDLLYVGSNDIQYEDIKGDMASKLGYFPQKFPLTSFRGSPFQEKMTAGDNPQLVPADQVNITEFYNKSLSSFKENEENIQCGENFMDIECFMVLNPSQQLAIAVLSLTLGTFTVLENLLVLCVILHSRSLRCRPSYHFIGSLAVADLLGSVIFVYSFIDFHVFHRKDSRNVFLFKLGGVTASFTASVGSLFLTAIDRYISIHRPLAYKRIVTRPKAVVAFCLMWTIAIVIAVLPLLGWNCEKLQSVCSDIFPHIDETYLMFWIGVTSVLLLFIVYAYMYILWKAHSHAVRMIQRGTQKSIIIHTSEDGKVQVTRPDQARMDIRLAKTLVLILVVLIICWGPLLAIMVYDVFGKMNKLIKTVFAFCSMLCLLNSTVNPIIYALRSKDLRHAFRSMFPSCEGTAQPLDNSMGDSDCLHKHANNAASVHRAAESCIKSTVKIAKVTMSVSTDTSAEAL

## CCCCCCC(C)(C)c1cc(O)c2c(c1)oc(=O)c1ccc(OC)cc12 [AM-1710]
CB2 receptor over CB1
  selectivity for CB2 over CB1: 54

## C=C(C)[C@@H]1CCC(C)=C[C@H]1c1c(O)cc(CCCCC)cc1O [CBD, 2-[(1R,6R)-6-isopropenyl-3-methylcyclohex-2-en-1-yl]-5-pentylbenzene-1,3-diol]
[1]; dose of 6.2 mg/day
  knee-joint swelling: reduce knee-joint swelling
[1]; dose of 62 mg/day
  knee-joint swelling: failed to yield any additional improvement

## CCCn1cc(C(=O)c2ccc(C)c3ccccc23)c2ccccc21 [JWH-120]
CB2 receptor over CB1
  selectivity for CB2 over CB1: 173

## CCCn1c(C)c(C(=O)c2ccc(C)c3ccccc23)c2ccccc21 [JWH-148]
CB2 receptor over CB1
  selectivity for CB2 over CB1: more than 8

## CCCCCCC(C)(C)c1cc(OC)c2c(c1)OC(C)(C)C1CCC(O)CC21 (stereo not drawn) [JWH-350, 11-nor-1-methoxy-3-(1′,1′-dimethylheptyl)-9α-hydroxyhexahydrocannabinol]
CB2 receptor over CB1
  selectivity for CB2 over CB1: 33

## CCCCCn1cc(C(=O)c2ccc(Cl)c3ccccc23)c2ccccc21 [JWH-398]
CB1
  Ki: 2.3 nM
CB2
  Ki: 2.8 nM

## CCCCCn1cc(C(=O)c2cccc3cccc(Br)c23)c2ccccc21 [JWH-424]
CB1
  Ki: 20.9 nM
CB2
  Ki: 5.44 nM

## CCCCCc1cc(O)c2c(c1)OC(C)(C)[C@@H]1CCC(C)=C[C@@H]21 [naturally derived delta-9-THC, (−)-(6aR,10aR)-6,6,9-Trimethyl-3-pentyl-6a,7,8,10a-tetrahydro-6H-benzo[c]chromen-1-ol]
[2]
  skin permeability: 20 µg
